Legend:
human TLR8 = target: T1, human TLR8 (Homo sapiens, UniProt Q9NR97); assay: HEK293-Blue-hTLR-8 cells assay; type: cell-based; conditions: HEK293-Blue-hTLR8 cells, R848 stimulation, 20 hrs, SEAP reporter; read-out: HEK/hTLR8 IC50
T1 construct: host or cells: HEK293 (HEK-Blue hTLR8)
T1 sequence (Q9NR97 27-1041): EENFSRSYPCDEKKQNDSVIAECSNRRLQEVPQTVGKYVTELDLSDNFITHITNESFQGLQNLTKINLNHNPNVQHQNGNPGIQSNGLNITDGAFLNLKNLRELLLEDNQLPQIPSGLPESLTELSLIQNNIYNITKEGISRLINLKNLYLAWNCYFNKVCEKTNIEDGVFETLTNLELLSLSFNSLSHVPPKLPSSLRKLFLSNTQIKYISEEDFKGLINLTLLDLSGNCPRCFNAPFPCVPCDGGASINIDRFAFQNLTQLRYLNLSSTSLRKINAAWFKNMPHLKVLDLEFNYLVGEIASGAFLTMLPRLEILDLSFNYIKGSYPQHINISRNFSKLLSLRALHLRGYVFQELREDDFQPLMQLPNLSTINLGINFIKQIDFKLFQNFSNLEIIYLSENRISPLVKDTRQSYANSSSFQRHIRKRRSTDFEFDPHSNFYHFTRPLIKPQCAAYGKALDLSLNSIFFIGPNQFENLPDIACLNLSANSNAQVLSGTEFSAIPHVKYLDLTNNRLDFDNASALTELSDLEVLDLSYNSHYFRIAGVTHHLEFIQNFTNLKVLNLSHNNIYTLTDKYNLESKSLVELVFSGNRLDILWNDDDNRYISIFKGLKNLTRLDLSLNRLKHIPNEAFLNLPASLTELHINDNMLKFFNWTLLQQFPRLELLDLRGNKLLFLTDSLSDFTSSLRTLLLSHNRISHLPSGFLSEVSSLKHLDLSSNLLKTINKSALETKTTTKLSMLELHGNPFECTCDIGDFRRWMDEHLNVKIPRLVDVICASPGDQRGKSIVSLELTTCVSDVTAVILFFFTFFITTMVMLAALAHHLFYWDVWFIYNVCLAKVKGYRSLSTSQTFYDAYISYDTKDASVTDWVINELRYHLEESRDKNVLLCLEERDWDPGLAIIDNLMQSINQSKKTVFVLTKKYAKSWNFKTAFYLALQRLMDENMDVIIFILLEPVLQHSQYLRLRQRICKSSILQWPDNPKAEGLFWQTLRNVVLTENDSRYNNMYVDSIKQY
Text: A stable HEK293-Blue-hTLR-8 cell line was purchased from InvivoGen (Cat. #: hkb-htlr8, San Diego, California, USA). These cells were originally designed for studying the stimulation of human TLR8 by monitoring the activation of NF-κB. A SEAP (secreted embryonic alkaline phosphatase) reporter gene was placed under the control of the IFN-β minimal promoter fused to five NF-κB and AP-1-binding sites. The SEAP was induced by activating NF-κB and AP-1 via stimulating HEK-Blue hTLR8 cells with TLR8 ligands. Therefore the reporter expression was declined by TLR8 antagonist under the stimulation of a ligand, such as R848, for incubation of 20 hrs. The cell culture supernatant SEAP reporter activity was determined using QUANTI-Blue™ kit (Cat. #: rep-qb1, Invivogen, San Diego, Ca, USA) at a wavelength of 640 nm, a detection medium that turns purple or blue in the presence of alkaline phosphatase.
HEK293-Blue-hTLR8 cells were incubated at a density of 250,000˜450,000 cells/mL in a volume of 170 μL in a 96-well plate in Dulbecco's Modified Eagle's medium (DMEM) containing 4.5 g/L glucose, 50 U/mL penicillin, […], […], 2 mM L-glutamine, 10% (v/v) heat-inactivated fetal bovine serum with addition of 20 μL test compound in a serial dilution in the presence of final DMSO at 1% and 10 μL of 60 uM R848 in above DMEM, perform incubation under 37° C. in a CO2 incubator for 20 hrs. Then 20 μL of the supernatant from each well was incubated with 180 μL Quanti-blue substrate solution at 37° C. for 2 hrs and the absorbance was read at 620˜655 nm using a spectrophotometer. The signaling pathway that TLR8 activation leads to downstream NF-κB activation has been widely accepted, and therefore similar reporter assay was modified for evaluating TLR8 antagonist.

hERG K+ channel = target: T2, hERG K+ channel (Homo sapiens, UniProt Q12809); assay: hERG channel inhibition assay (patch-clamp, CHOhERG cells); type: cell-based; conditions: for IC50 / IC20: CHOhERG cells, whole-cell patch-clamp; for IC20: human, CHO cells stably expressing hERG (CHOhERG); for hERG IC20/TLR7 IC50 / hERG IC20/TLR8 IC50 / hERG IC20/TLR9 IC50: safety ratio
T2 construct: expressed in transfected cells; host or cells: CHO (Chinese hamster ovary), CHOhERG
Description: The hERG K^+ channels were cloned in humans and stably expressed in a CHO (Chinese hamster ovary) cell line. CHOhERG cells were used for patch-clamp (voltage-clamp, whole-cell) experiments. Cells were stimulated by a voltage pattern to activate hERG channels and conduct IKhERG currents (rapid delayed outward rectifier potassium current of the hERG channel). After the cells were stabilized for a few minutes, the amplitude and kinetics of IKhERG were recorded at a stimulation frequency of 0.1 Hz, (6 bpm). Thereafter, the test compound was added to the preparation at increasing concentrations. For each concentration, an attempt was made to reach a steady-state effect, usually, this was achieved within 3-10 min at which time the next highest concentration was applied. The amplitude and kinetics of IKhERG are recorded in each concentration of the drug which were compared to the control values (taken as 100%). (references: Redfern W S, Carlsson L, Davis A S, Lynch W G, MacKenzie I, Palethorpe S, Siegl P K, Strang I, Sullivan A T, Wallis R, Camm A J, Hammond T G. 2003; Relationships between preclinical cardiac electrophysiology, clinical QT interval prolongation and torsade de pointes for a broad range of drugs: evidence for a provisional safety margin in drug development. Cardiovasc. Res. 58:32-45, Sanguinetti MC, Tristani-Firouzi M. 2006; hERG potassium channels and cardiac arrhythmia. Nature 440:463-469, Webster R, Leishman D, Walker D. 2002; Towards a drug concentration effect relationship for QT prolongation and torsades de pointes. Curr. Opin. Drug Discov. Devel. 5:116-26).

T2 sequence (Q12809 whole entry): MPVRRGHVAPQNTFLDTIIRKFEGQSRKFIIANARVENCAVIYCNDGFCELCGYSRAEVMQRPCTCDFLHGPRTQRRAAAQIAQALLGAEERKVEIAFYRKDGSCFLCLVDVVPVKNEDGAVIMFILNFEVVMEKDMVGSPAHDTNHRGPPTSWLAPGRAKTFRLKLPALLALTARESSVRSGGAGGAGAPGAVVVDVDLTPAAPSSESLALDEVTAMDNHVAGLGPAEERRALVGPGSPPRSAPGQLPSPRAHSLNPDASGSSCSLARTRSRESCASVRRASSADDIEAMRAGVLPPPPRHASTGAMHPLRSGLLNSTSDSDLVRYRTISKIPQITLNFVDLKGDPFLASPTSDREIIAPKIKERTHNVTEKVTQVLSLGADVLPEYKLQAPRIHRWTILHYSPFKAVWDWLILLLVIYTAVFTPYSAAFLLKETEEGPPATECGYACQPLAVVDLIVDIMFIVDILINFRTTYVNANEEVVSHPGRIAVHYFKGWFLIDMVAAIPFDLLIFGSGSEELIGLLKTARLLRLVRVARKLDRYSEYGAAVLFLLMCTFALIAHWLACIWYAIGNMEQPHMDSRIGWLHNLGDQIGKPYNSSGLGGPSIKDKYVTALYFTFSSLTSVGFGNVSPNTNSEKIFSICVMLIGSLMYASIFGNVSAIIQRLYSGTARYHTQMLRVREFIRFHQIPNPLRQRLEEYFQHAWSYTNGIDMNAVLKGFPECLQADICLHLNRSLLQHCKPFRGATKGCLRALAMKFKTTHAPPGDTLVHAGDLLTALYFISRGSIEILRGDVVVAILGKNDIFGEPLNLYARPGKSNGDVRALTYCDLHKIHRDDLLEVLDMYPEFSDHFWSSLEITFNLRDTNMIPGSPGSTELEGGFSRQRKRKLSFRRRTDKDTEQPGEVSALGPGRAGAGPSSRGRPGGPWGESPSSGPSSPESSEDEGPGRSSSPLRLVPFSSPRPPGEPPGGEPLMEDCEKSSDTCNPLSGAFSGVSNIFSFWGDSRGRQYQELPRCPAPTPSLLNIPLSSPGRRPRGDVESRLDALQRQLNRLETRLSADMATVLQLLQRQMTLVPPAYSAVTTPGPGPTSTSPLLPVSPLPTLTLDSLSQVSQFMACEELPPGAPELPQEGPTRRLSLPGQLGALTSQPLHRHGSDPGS

Row | Compound | IC50 (human TLR8) | IC50 (hERG K+ channel) | IC20 (hERG K+ channel) | hERG IC20/TLR7 IC50 (hERG K+ channel) | hERG IC20/TLR8 IC50 (hERG K+ channel) | hERG IC20/TLR9 IC50 (hERG K+ channel)
1 | C[C@@H]1CN(c2ccc(C#N)c3ncccc23)C[C@@H]2C[C@H](Nc3ccc([C@H]4CNCCO4)cc3)CCN21 [Example 20, 5-[(4R,8R,9aS)-4-methyl-8-[4-[(2S)-morpholin-2-yl]anilino]-1,3,4,6,7,8,9,9a-octahydropyrido[1,2-a]pyrazin-2-yl]quinoline-8-carbonitrile] | 0.05 µM | > 20 µM | > 10 µM | >769.2 | >200 | >200
2 | CO[C@H]1CN(c2ccc([C@@H]3CCN4[C@@H](C3)CN(c3ccc(C#N)c5ncccc35)C[C@H]4C)cn2)C[C@@H]1N [Example 6, 5-[(4R,8R,9aS)-8-[6-[(3S,4S)-3-amino-4-methoxy-pyrrolidin-1-yl]-3-pyridyl]-4-methyl-1,3,4,6,7,8,9,9a-octahydropyrido[1,2-a]pyrazin-2-yl]quinoline-8-carbonitrile] | 0.047 µM | > 20 µM | 9.2 µM | 224.4 | 195.7 | 105.7
3 | C[C@@H]1CN(c2ccc(C#N)c3ncccc23)C[C@@H]2C[C@@H](Oc3ccc(N4CCNCC4)cn3)CCN21 [Example 11, 5-[(4R,8S,9aS)-4-methyl-8-[(5-piperazin-1-yl-2-pyridyl)oxy]-1,3,4,6,7,8,9,9a-octahydropyrido[1,2-a]pyrazin-2-yl]quinoline-8-carbonitrile] | 0.015 µM | > 20 µM | > 10 µM | >217.4 | >666.6 | >111.1
4 | C[C@@H]1CN(c2ccc(C#N)c3ncccc23)C[C@@H]2C[C@H](N3CC(c4ccc(N5CCNCC5)cc4)C3)CCN21 [Example 9, 5-[(4R,8R,9aS)-4-methyl-8-[3-(4-piperazin-1-ylphenyl)azetidin-1-yl]-1,3,4,6,7,8,9,9a-octahydropyrido[1,2-a]pyrazin-2-yl]quinoline-8-carbonitrile] | 0.036 µM | > 20 µM | > 10 µM | >370.4 | >277.8 | >312.5
5 | C[C@@H]1CN(c2ccc(C#N)c3ncccc23)C[C@@H]2C[C@H](Nc3ccc(C[C@@H]4CNCCO4)cc3)CCN21 [Example 21, 5-[(4R,8R,9aS)-4-methyl-8-[4-[[(2R)-morpholin-2-yl]methyl]anilino]-1,3,4,6,7,8,9,9a-octahydropyrido[1,2-a]pyrazin-2-yl]quinoline-8-carbonitrile] | 0.054 µM | > 20 µM | > 10 µM | >500 | >185.2 | >116.3
6 | [2H]c1ccc2c(N3C[C@@H]4C[C@H](Nc5ccc(C[C@H]6CNCCO6)cc5)CCN4[C@H](C)C3)ccc(C#N)c2n1 [Example 34, 5-[(4R,8R,9aS)-4-methyl-8-[4-[[(2S)-morpholin-2-yl]methyl]anilino]-1,3,4,6,7,8,9,9a-octahydropyrido[1,2-a]pyrazin-2-yl]-2-deuterio-quinoline-8-carbonitrile] | 0.04 µM | > 20 µM | > 10 µM | >212.7 | >250 | >175.4

Source: patent US12421229B2, “Hydropyrido[1,2-α]pyrazine compounds for the treatment of autoimmune disease” (Hoffmann-La Roche Inc., priority 2019, dated 2025)
